Reference: patent US20060079696A1, “Substituted compounds derived from N-(benzyl)phenylacetamide, preparation and uses” (GENFIT, priority 2004, published 2006)

Key:
hPPARα, hPPARγ, hPPARδ = test: Gal4-hPPAR α/γ/δ transactivation: isoform selectivity and dose dependence; assay type: cell-based, human; settings: 10 μM
Protocol: (§1) The PPAR activation was evaluated in vitro on a monkey kidney fibroblast line (COS-7) by measuring the transcriptional activity of chimeras constituted of the DNA binding domain of the Gal4 transcription factor of yeast and of the binding domain to the ligand of the different PPARs. The compounds were tested at doses between 0.01 and 100 μM on Gal4-PPARα, γ, δ chimeras. The induction factor (ratio between the luminescence induced by the compound and the luminescence induced by the control) was measured for each condition: the higher this factor, the more the compound has PPAR-activating properties.
(§2) The Gal4(RE)_TkpGL3, pGal4-hPPARα, pGal4-hPPARγ, pGal4-hPPARδ and pGal4-φ plasmids have been described in the literature (Raspe, Madsen et al. 1999). The pGal4-hPPARα, pGal4-hPPARγ and pGal4-hPPARδ constructs were obtained by cloning in the pGal4-φ vector of fragments of DNA amplified by PCR corresponding to the DEF domains of the human PPARα, PPARγ PPARδ nuclear receptors.
(§3) COS-7 cells were plated in 96 wells plates (5×10^4 cells/well) and transfected, in the presence of 10% foetal calf serum and 150 ng DNA per well, with a pGal4-PPAR/Gal4(RE)_TkpGL3 ratio of 1/10. The cells were then incubated for 24 hours with the compounds to be tested, without serum. At the end of the experiment, the cells were lysed and the luciferase activities were determined by means of Steady Glow Luciferase (Promega) according to the supplier's recommendations.
The inventive compounds were tested at doses between 0.01 and 100 μM on the 3 PPAR isoforms. The results obtained are detailed in FIGURES (1a), (1b) and (1c): evolution of the transactivation levels according to the dose for the three PPAR sub-types (α, γ, and δ respectively).

hPPARα = biological target: T1, hPPARα (Homo sapiens, UniProt Q07869); test: Gal4-hPPARα chimera transactivation in COS-7 cells (luciferase); assay type: cell-based; settings: induction factor standardised to an internal reference, read-out: % hGal4-PPAR transactivation (10 μM) alpha
T1 construct: fragments of DNA amplified by PCR corresponding to the DEF domains of the human PPARα, PPARγ PPARδ nuclear receptors; expressed in transfected cells; host or cells: COS-7 (monkey kidney fibroblast line)
T1 sequence (Q07869 239-466 limits assumed): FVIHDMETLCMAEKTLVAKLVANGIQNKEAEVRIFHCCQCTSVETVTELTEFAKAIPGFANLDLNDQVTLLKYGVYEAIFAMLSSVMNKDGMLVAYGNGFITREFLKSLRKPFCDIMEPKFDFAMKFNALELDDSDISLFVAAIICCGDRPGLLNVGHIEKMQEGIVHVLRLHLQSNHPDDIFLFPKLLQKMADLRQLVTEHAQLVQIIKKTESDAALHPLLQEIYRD
Protocol: as §1
(§4) The COS-7 cells from ATCC were cultivated in a DMEM medium supplemented with 10% (vol/vol) of foetal calf serum, 100 U/ml penicillin (Gibco, Paisley, UK) and 2 mM L-Glutamine (Gibco, Paisley, UK). The cells were incubated at 37° C. in a humid atmosphere containing 5% CO2.
as §2, §3
(§5) The inventive compounds were tested at 10 μM on the 3 PPAR isoforms. The results obtained are detailed in table (1). The transactivation measured is expressed as a response ratio versus an internal reference for each of the isoforms.
(§6) The compounds were tested at 10 μM on the Gal4-PPARα, γ, δ chimeras. The induction factor, i.e. the ratio between the luminescence induced by the compound and the luminescence induced by the control, was measured for each condition. It was then standardised in comparison to an internal reference and the results were then expressed in percentages : the higher the activation percentage, the more the compound has PPAR-activating properties.

hPPARγ = biological target: T2, hPPARγ (Homo sapiens, UniProt P37231); test: Gal4-hPPARγ chimera transactivation in COS-7 cells (luciferase); assay type: cell-based; settings: induction factor standardised to an internal reference, read-out: % hGal4-PPAR transactivation (10 μM) gamma
T2 construct: fragments of DNA amplified by PCR corresponding to the DEF domains of the human PPARα, PPARγ PPARδ nuclear receptors; expressed in transfected cells; host or cells: COS-7 (monkey kidney fibroblast line)
T2 sequence (P37231 238-503 limits assumed): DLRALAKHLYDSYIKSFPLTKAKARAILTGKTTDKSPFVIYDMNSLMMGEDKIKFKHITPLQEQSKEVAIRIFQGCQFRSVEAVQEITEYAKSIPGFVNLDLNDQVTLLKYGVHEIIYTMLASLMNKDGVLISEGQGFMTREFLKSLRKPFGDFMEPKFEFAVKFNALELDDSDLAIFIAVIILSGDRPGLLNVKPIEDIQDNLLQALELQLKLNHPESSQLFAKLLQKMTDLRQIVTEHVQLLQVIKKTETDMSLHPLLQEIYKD
Protocol: as §1, §4, §2, §3, §5, §6

hPPARδ = biological target: T3, hPPARδ (Homo sapiens, UniProt Q03181); test: Gal4-hPPARδ chimera transactivation in COS-7 cells (luciferase); assay type: cell-based; settings: induction factor standardised to an internal reference, read-out: % hGal4-PPAR transactivation (10 μM) delta
T3 construct: fragments of DNA amplified by PCR corresponding to the DEF domains of the human PPARα, PPARγ PPARδ nuclear receptors; expressed in transfected cells; host or cells: COS-7 (monkey kidney fibroblast line)
T3 sequence (Q03181 211-439 limits assumed): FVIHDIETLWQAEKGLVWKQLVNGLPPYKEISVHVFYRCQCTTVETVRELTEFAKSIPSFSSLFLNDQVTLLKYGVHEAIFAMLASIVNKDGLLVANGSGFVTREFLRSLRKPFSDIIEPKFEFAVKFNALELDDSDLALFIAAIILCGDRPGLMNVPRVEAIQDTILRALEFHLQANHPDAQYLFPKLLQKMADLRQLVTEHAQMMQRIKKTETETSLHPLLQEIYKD
Protocol: as §1, §4, §2, §3, §5, §6

[1] = biological target: T4, ATP-dependent potassium channels (K+ATP) (Rattus norvegicus, UniProt Q09429); test: [3H]glibenclamide binding to ATP-dependent potassium channels of rat cerebral cortex; settings: 1 h; 300 nM; specific displacement of [3H]glibenclamide 0.1 nM; read-out: KATP binding (300 nM)
T4 construct: the potassium channels derive from a rat's cerebral cortex; tissue CEREP; host or cells: rat cerebral cortex
Protocol: The results shown reflect the specific affinity of the inventive compounds on the ATP-dependent (K^+ATP) potassium channels. The specific binding measured corresponds to the difference between the total binding and the non-specific binding determined in the presence of an excess of non-marked reference ligand (glibenclamide 1 μM). The inventive compounds were tested at doses between 3 and 300 nM: the higher the percentage measured, the stronger the affinity of the compound for the ATP-dependent potassium channels.
The binding test was carried out at CEREP (Celle L'Evescault, France (86)) according to a protocol inspired by Angel et al. (Angel and Bidet 1991): the potassium channels derive from a rat's cerebral cortex and the reference compound is [^3H]glibenclamide at 0.1 nM. The protocol consists of incubation at 22° C. for one hour.

T4 sequence (Q09429 whole entry): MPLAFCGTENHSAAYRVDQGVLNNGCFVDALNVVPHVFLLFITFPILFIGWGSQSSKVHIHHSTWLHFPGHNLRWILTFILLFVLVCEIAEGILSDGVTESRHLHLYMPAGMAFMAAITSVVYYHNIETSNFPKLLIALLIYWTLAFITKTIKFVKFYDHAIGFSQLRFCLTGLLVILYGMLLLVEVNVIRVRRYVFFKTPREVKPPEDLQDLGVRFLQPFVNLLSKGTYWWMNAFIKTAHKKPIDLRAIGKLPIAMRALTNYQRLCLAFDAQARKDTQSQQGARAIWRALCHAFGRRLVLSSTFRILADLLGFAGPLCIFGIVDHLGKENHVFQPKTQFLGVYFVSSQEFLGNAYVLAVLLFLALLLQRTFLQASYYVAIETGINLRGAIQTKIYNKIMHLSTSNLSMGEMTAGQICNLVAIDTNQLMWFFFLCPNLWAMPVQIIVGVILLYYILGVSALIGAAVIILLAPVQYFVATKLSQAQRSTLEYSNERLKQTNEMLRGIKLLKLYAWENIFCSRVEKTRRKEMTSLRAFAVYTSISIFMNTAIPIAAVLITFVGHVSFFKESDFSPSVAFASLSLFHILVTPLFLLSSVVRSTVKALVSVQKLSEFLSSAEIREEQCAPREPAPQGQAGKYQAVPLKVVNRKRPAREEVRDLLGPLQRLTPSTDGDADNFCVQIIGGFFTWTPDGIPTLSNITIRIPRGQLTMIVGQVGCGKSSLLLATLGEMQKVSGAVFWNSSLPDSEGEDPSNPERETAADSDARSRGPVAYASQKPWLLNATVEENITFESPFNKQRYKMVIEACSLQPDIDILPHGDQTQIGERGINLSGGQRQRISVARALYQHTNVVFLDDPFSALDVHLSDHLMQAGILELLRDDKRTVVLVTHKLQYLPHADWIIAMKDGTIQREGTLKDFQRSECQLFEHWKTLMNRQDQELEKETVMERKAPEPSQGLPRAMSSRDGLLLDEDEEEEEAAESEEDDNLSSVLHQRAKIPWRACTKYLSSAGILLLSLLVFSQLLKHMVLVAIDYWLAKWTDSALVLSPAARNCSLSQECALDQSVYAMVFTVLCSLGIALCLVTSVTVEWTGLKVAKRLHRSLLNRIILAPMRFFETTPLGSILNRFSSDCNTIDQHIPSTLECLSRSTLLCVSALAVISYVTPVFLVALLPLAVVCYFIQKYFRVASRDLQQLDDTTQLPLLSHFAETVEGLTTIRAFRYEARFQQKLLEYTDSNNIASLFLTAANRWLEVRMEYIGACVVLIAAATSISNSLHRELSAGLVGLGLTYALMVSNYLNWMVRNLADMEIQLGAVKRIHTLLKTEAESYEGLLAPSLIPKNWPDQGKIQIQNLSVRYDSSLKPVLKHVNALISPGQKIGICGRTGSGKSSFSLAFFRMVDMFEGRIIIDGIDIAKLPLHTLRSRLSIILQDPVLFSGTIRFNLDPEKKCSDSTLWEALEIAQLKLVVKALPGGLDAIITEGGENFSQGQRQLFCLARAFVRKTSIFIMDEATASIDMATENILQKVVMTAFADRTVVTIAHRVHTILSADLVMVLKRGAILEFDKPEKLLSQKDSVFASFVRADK
T4 sequence (P70673 whole entry partner): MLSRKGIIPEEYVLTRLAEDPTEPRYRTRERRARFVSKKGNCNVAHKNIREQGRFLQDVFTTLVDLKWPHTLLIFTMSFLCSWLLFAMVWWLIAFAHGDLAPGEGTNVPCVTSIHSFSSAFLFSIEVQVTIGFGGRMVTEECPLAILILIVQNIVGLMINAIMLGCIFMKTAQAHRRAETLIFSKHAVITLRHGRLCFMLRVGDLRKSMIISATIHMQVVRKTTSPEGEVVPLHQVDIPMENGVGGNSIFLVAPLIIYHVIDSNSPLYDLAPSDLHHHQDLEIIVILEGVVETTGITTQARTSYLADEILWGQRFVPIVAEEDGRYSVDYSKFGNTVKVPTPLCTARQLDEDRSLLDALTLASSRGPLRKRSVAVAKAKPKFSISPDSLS

activation at 10 µM (hPPARα) [%] | activation at 10 µM (hPPARγ) [%] | activation at 10 µM (hPPARδ) [%] | inhibition at 0.3 µM [1] [%] | SMILES | selectivity with respect to PPAR isoforms (hPPARα, hPPARγ, hPPARδ)
46 | < 10 | < 10 | 49 | CCCCC(NC(=O)Cc1ccc(OC(C)(C)C(=O)NS(=O)(=O)C(F)(F)F)cc1)c1ccccc1N1CCCCC1 (stereo not drawn) [Compound 60, N-[trifluoromethylsulfonyl]-2-[4-[1-(1-(2-(1-piperidinyl)phenyl)pentyl)aminocarbonylmethyl]phenoxy]-2-methylpropanamide] | hPPARα selective
< 10 | 87 | 57 | – | CCCCC(NC(=O)Cc1ccc(OC(C)(C)C(=O)O)cc1)c1ccc(-n2cccc2)cc1N1CCCCC1 (stereo not drawn) [Compound 49, 2-[4-[1-(1-(2-(1-piperidinyl)-4-(1H-pyrrolyl)phenyl)pentyl)aminocarbonylmethyl]phenoxy]-2-methylpropanoic acid] | activates hPPARγ and hPPARδ, but not hPPARα
16 | 29 | 24 | – | CC(C)CC(NC(=O)Cc1ccc(OC(C)(C)C(=O)O)cc1)c1ccc(-c2ccccc2)cc1N1CCCCC1 (stereo not drawn) [Compound 39, 2-[4-[1-(3-methyl-1-(2-(1-piperidinyl)-4-(phenyl)phenyl)butyl)aminocarbonylmethyl]phenoxy]-2-methylpropanoic acid] | ligand of hPPARα, hPPARγ and hPPARδ
< 10 | 50 | < 10 | 90 | CCCC(NC(=O)Cc1ccc(OC(C)(C)C(=O)O)cc1)c1ccccc1N1CCCCC1 (stereo not drawn) [Compound 65, 2-[4-[1-(1-(2-(1-piperidinyl)phenyl)butyl)aminocarbonylmethyl]phenoxy]-2-methylpropanoic acid] | –

The remaining lines, values behind:

SMILES | activation at 10 µM (hPPARα) [%] | activation at 10 µM (hPPARγ) [%] | activation at 10 µM (hPPARδ) [%] | inhibition at 0.3 µM [1] [%] | selectivity with respect to PPAR isoforms (hPPARα, hPPARγ, hPPARδ)
CC(C)(Oc1ccc(CC(=O)NC(CC2CCCCC2)c2ccccc2N2CCCCC2)cc1)C(=O)O (stereo not drawn) [Compound 19, 2-[4-[1-(2-cyclohexyl-1-(2-(1-piperidinyl)phenyl)ethyl)aminocarbonylmethyl]phenoxy]-2-methylpropanoic acid] | < 10 | 95 | < 10 | – | activates neither hPPARα nor hPPARδ
CCCCC(NC(=O)Cc1ccc(OC(C)(C)C(=O)O)cc1)c1ccccc1Sc1ccccc1 (stereo not drawn) [Compound 36, 2-[4-[1-(1-(2-(phenylthio)phenyl)pentyl)aminocarbonylmethyl]phenoxy]-2-methylpropanoic acid] | 54 | 73 | < 10 | 45 | activates hPPARα and hPPARγ, but not hPPARδ
CC(C)CC(C(=O)NCc1ccc(OC(C)(C)C(=O)O)cc1)c1ccccc1N1CCCCC1 (stereo not drawn) [Compound 32, 2-[4-[1-(3-methyl-1-(2-(1-piperidinyl)phenyl)butyl)carbonylaminomethyl]phenoxy]-2-methylpropanoic acid] | < 10 | 25 | < 10 | 93 | –
